US4435381A, “Thiouronium phosphonates for use in dental treatments” (priority 1983, dated 1984)
Values after ≈ are worked out from the molar mass of the structure shown. Read-outs that look alike come from different tables or passages of the source.

Tests used:
[1] = tested on: S. mutans; assay: Acid inhibition (AI): 0.1 normal NaOH needed to neutralize acid produced by S. mutans from sucrose after 48 hours; type: cell-based; conditions: trypticase-yeast medium containing sucrose, 48 hours incubation
Description: Acid inhibition (AI) is a measure of acid production when S. mutans attacks sucrose to form pyruvic and lactic acids. The organism is added to a culture medium (trypticase-yeast) containing sucrose, and after 48 hours incubation, the quantity of 0.1 normal NaOH (in ml) needed to neutralize the acid is measured.

[2] = tested on: S. mutans; assay: Minimum inhibitory and minimum bactericidal concentrations against S. mutans grown in a typical culture medium; type: cell-based; conditions: Streptococcus mutans; for MBC: read-out: MBC (minimum bactericidal concentration); for MIC: read-out: MIC (minimum inhibitory concentration)
[3] = tested on: S. mutans; assay: Plaque inhibition in the hamster (S. mutans infected); type: in vivo, Golden Syrian hamsters; conditions: Test 2; mean scoring value (approximate percentage of surface); 28 days, 0.3% Methocel suspension, 200 μl per treatment; Methocel control 13.96 ± 1.49; significantly different from control at p ≤ 0.01
Description: Representative thiouronium phosphonates were tested against hamsters as in vivo subjects, as follows.
Golden Syrian hamsters (3-4 wks of age), obtained from GIBCO Animal Resources Laboratories, Madison, Wis. were used in all studies. Upon receipt, the animals were randomly distributed into cages of three animals of the same sex per cage. Experimental groups consisted of twelve animals, six males and six females. Food (Diet 2000, General Biochemicals Co.) and deionized water were allowed ad libitum. Food consumption was monitored three times a week while animal weights were checked twice a week.
After an acclimation period of 10 days, the oral cavities of the hamsters were infected with a cariogenic strain of S. mutans (ATCC 10449, SR 500). This was accomplished by injecting […] of a 24 hr. culture grown static in Todd-Hewitt broth (supplemented with 0.5% lactalbumin hydrolysate) into their mouths, and by adding 2 ml/100 ml of the culture to their drinking water. This was repeated daily for four days. On the fifth day, fresh water was given to the hamsters.
To insure that the organism had actually implanted, the oral cavity of each hamster was swabbed on the sixth day. […]
After all data had been recorded, the codes were broken, the data re-grouped and the various treatment groups compared by a non-parametric one-way analysis of variance.

[4] = against S. mutans grown in a typical culture medium

SMILES | AI (acid inhibition; amount of 0.1 normal NaOH required) [1] | MBC [2, 4] | MIC [2, 4] | Molar Surface Covered with Plaque [3] | MBC [2] | MIC [2]
CCCCCCCCCCCSC(=N)N [n=11, R=C6 H5] | 0.5 mL | 2 µg/mL (≈ 8.68 µM) | 1 µg/mL (≈ 4.34 µM) |  |  | 
CCCCCCCCCCCCCSC(=N)N [n=13, R=C6 H5, Tridecyl thiouronium phenylphosphonate] | 0.3 mL | 2 µg/mL (≈ 7.74 µM) | 1 µg/mL (≈ 3.87 µM) | 7.06 ± 1.16 |  | 
CCCCCCCCCCSC(=N)N [n=10, R=C6 H5, n-Decyl thiouronium phenylphosphonate] | 1.25 mL | 3.9 µg/mL (≈ 18 µM) | 2 µg/mL (≈ 9.24 µM) |  |  | 
CCCCCCCCCCCCCCSC(=N)N [n=14, R=CH3, n-Tetradecyl thiouronium methanephosphonate] | 0.5 mL |  |  |  | 7.8 µg/mL (≈ 28.6 µM) | 1 µg/mL (≈ 3.67 µM)
